This note sets out measurements from patent EP4678638A1, “NEW E3 UBIQUITIN LIGASE LIGAND, PROTEIN DEGRADATION AGENT AND USE THEREOF” (priority 2023, dated 2024).

pIC50: −log10 of the molar value. Read-outs that look alike come from different tables or passages of the source. Some results are limits rather than exact numbers.

Assay [1] concerns the target T1, IRAK4 (Homo sapiens, UniProt Q9NWZ3).
T1 construct: evaluate the effects of the compounds of the present disclosure on the expression of target proteins in cells; endogenous in cells; host or cells: hPBMC
T1 sequence (Q9NWZ3 1-460): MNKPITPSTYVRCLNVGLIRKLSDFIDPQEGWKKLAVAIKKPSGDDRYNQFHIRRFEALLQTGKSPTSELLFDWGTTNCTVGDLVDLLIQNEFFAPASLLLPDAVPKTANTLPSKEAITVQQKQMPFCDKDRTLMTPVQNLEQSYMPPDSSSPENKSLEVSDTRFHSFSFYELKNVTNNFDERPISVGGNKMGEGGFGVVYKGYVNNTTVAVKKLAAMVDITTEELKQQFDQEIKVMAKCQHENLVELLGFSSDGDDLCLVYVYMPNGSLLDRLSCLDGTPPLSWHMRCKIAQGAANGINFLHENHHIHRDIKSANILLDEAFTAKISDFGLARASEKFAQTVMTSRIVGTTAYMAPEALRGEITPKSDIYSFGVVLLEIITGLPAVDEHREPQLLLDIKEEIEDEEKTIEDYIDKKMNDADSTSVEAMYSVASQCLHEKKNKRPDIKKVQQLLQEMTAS
Briefly: Western blot degradation of IRAK4 (hPBMC). The assay is classed as cell-based. The conditions noted are these: Table D1. A digest of the protocol:
(§1)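 Degradation is assessed by immunoblotting lysates of treated cells. Target bands are quantified by grayscale and normalised to an internal control, so degradation rate equals 100% minus % remaining.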

Assay [2] relates to MGC-803. Put plainly: CCK-8 proliferation, MGC-803 (heads: MGC80-3, MGC803). The format is cell-based, Human. The conditions noted are these: Homo sapiens, MGC-803; for IC50: Table B10, compounds designed based on the IRAK4 inhibitors, MGC803 cells, read-out: Inhibitory activity (IC50, nM) on tumor cell proliferation, MGC803. How it is done: (§2) The tumor cells used herein were cultured in a cell culture medium listed in table A1 at 37°C in an incubator with 5% CO2. Prior to experimentation, all cell lines used were correctly identified by STR profiling, and tested negative for mycoplasma contamination using a mycoplasma detection kit through routine screenings. Table A1. Tumor cells and cell culture medium used in the present disclosure
(§3) IC50 values of the compounds of the present disclosure (including the compounds in Table 1, and compounds of examples) were measured using the Meilun Cell Counting Kit-8 kit from Dalian Meilun Biotech Co., Ltd. Assay details are as follows: tumor cells were seeded in a 96-well plate at a density listed in Table A2. After 24h, 100 µL of the inoculated cells were treated with 0.5µL of the compounds of the present disclosure (including the compounds in Tables 1 and 2, and compounds of examples) at 10 different successively decreasing concentrations (starting at the highest concentration of 10µM; 5-fold serial dilutions). After the cells were treated with the compounds of the present disclosure for a period of time, the cell viability detection reagent was added to the culture medium for cell viability assessment according to the instructions provided with the CCK-8 kit. […] The growth inhibition of the compounds of the present disclosure on cells was plotted by Prism Graphpad software, and the IC50 values of the compounds of the present disclosure were calculated therefrom. […] Seeding protocol and treatment time for tumor cells

In assay [3] the test system is H1975. Put plainly: CCK-8 proliferation, NCI-H1975 (H1975). The format is cell-based, Human. The conditions noted are these: Homo sapiens, NCI-H1975; CCK-8; 96 hours; read-out: Inhibitory activity (IC50) on tumor cell proliferation, H1975. In outline:
(§4)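 CCK-8 viability readout; IC50 from growth-inhibition curve fitting. Cells plated, dosed 24h later with a 10-point series, top 10µM, 5-fold steps. Culture at 37°C, 5% CO2.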

Assay [4] has as its system EGFR. Put plainly: Western blot degradation of EGFR (H1975 Cell). The format is cell-based, Human. The conditions noted are these: Table D2. A digest of the protocol: as §1
Assay [5] has as its system H1975-1µM Osimertinib cells. Briefly: CCK-8 proliferation, osimertinib-resistant H1975 cells. The format is cell-based, Human. The conditions noted are these: Homo sapiens, NCI-H1975; CCK-8; osimertinib-resistant H1975 cells obtained by treating H1975 cells with 1 µM Osimertinib for 3 months; read-out: Inhibitory activity (IC50) on tumor cell proliferation, H1975-1µm Osimertinib. As for the experimental part: as §2, §3

The test system of assay [6] is Jurkat. Briefly: CCK-8 proliferation, Jurkat. The assay is classed as cell-based, Human. The conditions noted are these: Homo sapiens; Table B10, compounds designed based on the IRAK4 inhibitors; Jurkat cells; read-out: Inhibitory activity (IC50, nM) on tumor cell proliferation, Jurkat. How it is done: as §2, §3
In assay [7] the test system is SR. Briefly: CCK-8 proliferation, SR. The format is cell-based, Human. The conditions noted are these: Homo sapiens; Table B10, compounds designed based on the IRAK4 inhibitors; SR cells; read-out: Inhibitory activity (IC50, nM) on tumor cell proliferation, SR. A digest of the protocol:
as §4

Assay [8] deals with MM.1S. Briefly: CCK-8 proliferation, MM.1S. The assay is classed as cell-based. The conditions noted are these: Homo sapiens, MM1.S; Table B10, compounds designed based on the IRAK4 inhibitors; MM.1S cells; read-out: Inhibitory activity (IC50, nM) on tumor cell proliferation, MM.1S. A digest of the protocol: as §4
For assay [9], the system named is SW620. Briefly: CCK-8 proliferation, SW620. The assay is classed as cell-based. The conditions noted are these: Homo sapiens, SW-620; CCK-8; 96 hours; read-out: Inhibitory activity (IC50) on tumor cell proliferation, SW620. How it is done:
as §2, §3

For assay [10], the system named is HCC827. Briefly: CCK-8 proliferation, HCC827. The conditions noted are these: Homo sapiens, HCC827; CCK-8; 96 hours; read-out: Inhibitory activity (IC50) on tumor cell proliferation, HCC827. The assay is classed as cell-based, Human. How it is done: as §2, §3
Assay [11] has as its system PC-9. Put plainly: CCK-8 proliferation, PC-9. The format is cell-based, Human. The conditions noted are these: Homo sapiens, PC-9; CCK-8; 96 hours; read-out: Inhibitory activity (IC50) on tumor cell proliferation, PC-9. A digest of the protocol: as §4

Regarding `COc1cc2nn(C3CCN(Cc4ccc(C5CCC(=O)NC5=O)c(F)c4)CC3)cc2cc1NC(=O)c1cccc(C(F)(F)F)n1` (stereo not drawn) [GT-04762, N-(2-(1-(4-(2,6-dioxopiperidin-3-yl)-3-fluorobenzyl)piperidin-4-yl)-6-methoxy-2H-indazol-5-yl)-6-(trifluoromethyl)picolinamide], in assay [1], the “Degradation of substrate protein IRAK4 (substrate protein remaining %)” value was “A (A is defined as 0% ≤ substrate protein remaining % ≤ 80%)”. In assay [2], the IC50 was 500 to 1000 nM.
Turning to `O=C1CCN(c2ccc(CN3C[C@H]4C[C@@H]3CN4c3ccc(-c4cc(F)c5c(c4)C(=O)N(C(C(=O)Nc4nccs4)c4ncn6c4CCC6)C5)cc3)nc2)C(=O)N1` (stereo partly drawn) [GT-06190, 2-(6,7-dihydro-5H-pyrrolo[1,2-c]imidazol-1-yl)-2-(6-(4-((1R,4R)-5-((5-(2,4-dioxotetrahydropyrimidin-1(2H)-yl)pyridin-2-yl)methyl)-2,5-diazabicyclo[2.2.1]heptan-2-yl)phenyl)-4-fluoro-1-oxoisoindolin-2-yl)-N-(thiazol-2-yl)acetamide], the pIC50 in [3] was 8.00 to 9.00; in [5], 6.30 to 7.00. For the same molecule, the “Degradation of substrate protein EGFR (substrate protein remaining %)” value in assay [4] is “A (A is defined as 0% ≤ substrate protein remaining % ≤ 80%)”.
As for `CC(C)n1nc(N2CCC(N3CCN(Cc4ccc(C5CCC(=O)NC5=O)cc4)CC3)CC2)c2cnc(Nc3ccnc(-c4cnn(S(=O)(=O)C5CC5)c4)n3)cc21` (stereo not drawn) [GT-06078, 3-(4-((4-(1-(6-((2-(1-(cyclopropylsulfonyl)-1H-pyrazol-4-yl)pyrimidin-4-yl)amino)-1-isopropyl-1H-pyrazolo[4,3-c]pyridin-3-yl)piperidin-4-yl)piperazin-1-yl)methyl)phenyl)piperidine-2,6-dione], in [4], the “Degradation of substrate protein EGFR (substrate protein remaining %)” value is on record as “A (A is defined as 0% ≤ substrate protein remaining % ≤ 80%)”. Besides, the pIC50 in assay [5] was 6.30 to 7.00.
For the molecule `CN(Cc1cccc(NC2CCC(=O)NC2=O)c1)C1CCN(c2ccc(-c3cc(F)c4c(c3)C(=O)N(C(C(=O)Nc3nccs3)c3ncn5c3CCC5)C4)cc2)CC1` (stereo not drawn) [GT-05284, 2-(6,7-dihydro-5H-pyrrolo[1,2-c]imidazol-1-yl)-2-(6-(4-(4-((3-((2,6-dioxopiperidin-3-yl)amino)benzyl)(methyl)amino)piperidin-1-yl)phenyl)-4-fluoro-1-oxoisoindolin-2-yl)-N-(thiazol-2-yl)acetamide], the pIC50 in assay [3] was 8.00 to 9.00; in assay [5] it was 6.00 to 6.30. In assay [4], the “Degradation of substrate protein EGFR (substrate protein remaining %)” value is reported as “A (A is defined as 0% ≤ substrate protein remaining % ≤ 80%)”.
Consider `O=C1CCN(c2cccc(CN3CCC(N4CCN(c5ccc6c(c5)nc(NC(=O)c5cccc(C(F)(F)F)c5)n6[C@H]5CC[C@@H](CO)CC5)CC4)CC3)c2)C(=O)N1` [GT-05022, N-(5-(4-(1-(3-(2,4-dioxotetrahydropyrimidin-1(2H)-yl)benzyl)piperidin-4-yl)piperazin-1-yl)-1-((1s,4s)-4-(hydroxymethyl)cyclohexyl) -1H-benzo[d]imidazol-2-yl)-3-(trifluoromethyl)benzamide], for which the IC50 in assay [6], in assay [2], in [7] and in [8] was 500 to 1000 nM throughout. The “Degradation of substrate protein IRAK4 (substrate protein remaining %)” value in assay [1] was “A (A is defined as 0% ≤ substrate protein remaining % ≤ 80%)”.
Consider `CCC(=C(c1ccc(O)cc1)c1ccc(N2CCN(Cc3ccc(C4CCC(=O)NC4=O)c(F)c3)CC2)cc1)c1ccc(O)cc1` (stereo not drawn) [GT-04150, 3-(4-((4-(4-(1,2-bis(4-hydroxyphenyl)but-1-en-1-yl)phenyl)piperazin-1-yl)methyl)-2-fluorophenyl)piperidine-2,6-dione], for which the pIC50 in assay [2] (CCK-8, 72 hours, read-out: Inhibitory activity (IC50) on tumor cell proliferation, MGC80-3) is under 5.00; in assay [9], over 9.00.
Consider `O=C1CCC(Nc2cccc(CN3CCN(c4ccc(-c5cc(F)c6c(c5)C(=O)N(C(C(=O)Nc5nccs5)c5ncn7c5CCC7)C6)cc4)CC3)c2)C(=O)N1` (stereo not drawn) [GT-06188, 2-(6,7-dihydro-5H-pyrrolo[1,2-c]imidazol-1-yl)-2-(6-(4-(4-(3-((2,6-dioxopiperidin-3-yl)amino)benzyl)piperazin-1-yl)phenyl)-4-fluoro-1-oxoisoindolin-2-yl)-N-(thiazol-2-yl)acetamide], for which the pIC50 in assay [3] is 8.00 to 9.00; in assay [5], over 9.00.
Take `O=C1CCN(c2ccc(CN3CCC(N4CCN(c5ccc6c(c5)nc(NC(=O)c5cccc(C(F)(F)F)c5)n6[C@H]5CC[C@@H](CO)CC5)CC4)CC3)nc2)C(=O)N1` [GT-05024, N-(5-(4-(1-((5-(2,4-dioxotetrahydropyrimidin-1(2H)-yl)pyridin-2-yl)methyl)piperidin-4-yl)piperazin-1-yl)-1-((1s,4s)-4-(hydroxymethyl)cyclohexyl) -1H-benzo[d]imidazol-2-yl)-3-(trifluoromethyl)benzamide]: the IC50 in [6], in [2], in assay [7] and in assay [8] was 500 to 1000 nM in each case.
`O=C1CCN(c2ccc(CN3CCC(N4CCN(c5ccc6c(c5)nc(NC(=O)c5cccc(C(F)(F)F)c5)n6[C@H]5CC[C@@H](CO)CC5)CC4)CC3)cc2)C(=O)N1` [GT-05021, N-(5-(4-(1-(4-(2,4-dioxotetrahydropyrimidin-1(2H)-yl)benzyl)piperidin-4-yl)piperazin-1-yl)-1-((1s,4s)-4-(hydroxymethyl)cyclohexyl) -1H-benzo[d]imidazol-2-yl)-3-(trifluoromethyl)benzamide]: the IC50 in assay [6], in [2] and in assay [8] was 500 to 1000 nM throughout.
As to `Cc1cc(-c2nc(C(=O)Nc3cc4oc(N5CCOCC5)nc4nc3N3CC[C@@H](O)C3)co2)ccn1` [emavusertib, reference compound], the IC50 in [2] and in [8] was over 10000 nM in each case.
For `COC1CCN(c2nccc(Nc3cc4c(cn3)c(N3CCN(Cc5ccc(N6CCC(=O)NC6=O)cc5)CC3)nn4C(C)C)n2)CC1` [GT-06037, 1-(4-((4-(1-isopropyl-6-((2-(4-methoxypiperidin-1-yl)pyrimidin-4-yl)amino)-1H-pyrazolo[4,3-c]pyridin-3-yl)piperazin-1-yl)methyl)phenyl)dihydropyr imidine-2,4(1H,3H)-dione], the pIC50 in assay [5] was 8.00 to 9.00.
As to `O=C1CCN(c2ccc(CN3CCN(C4CCN(c5ccc(Nc6ncc7nc(Nc8ccccc8)n(C8CCCC8)c7n6)cc5)CC4)CC3)nc2)C(=O)N1` [GT-05941, 1-(6-((4-(1-(4-((9-cyclopentyl-8-(phenylamino)-9H-purin-2-yl)amino)phenyl)piperidin-4-yl)piperazin-1-yl)methyl)pyridin-3-yl)dihydropyrimidine-2,4(1H,3H)-dione], the pIC50 is 6.30 to 7.00 in assay [3], 7.30 to 8.00 in assay [10] and 8.00 to 9.00 in [11]. Also, the “Degradation of substrate protein EGFR (substrate protein remaining %)” value in assay [4] is recorded as “A (A is defined as 0% ≤ substrate protein remaining % ≤ 80%)”.
